{"source": "ChEMBL document CHEMBL5390251", "about": "“Pyrazolidinone-based peptidomimetic SARS-CoV-2 Mpro inhibitors” (Bioorg Med Chem Lett, 2023)", "note": "The source made the active and inactive calls. The calls are words filed in the database; no cut-off is given here."}
{"biological_target": "Replicase polyprotein 1ab (Severe acute respiratory syndrome coronavirus 2) (UniProt P0DTD1)", "experiment": "Inhibition of SARS-Cov-2 Main protease at <=500 uM by FRET assay"}
{"smiles": "N[C@@H]1C(=O)N2C(C(=O)O)=C(Cl)CS[C@H]12", "inhibition": "inactive"}
{"smiles": "N[C@H]1CN2CC(C(=O)N(Cc3ccccc3)Cc3ccccc3)=C(C(=O)O)N2C1=O", "inhibition": "inactive"}
{"smiles": "C[C@H]1[C@H](N)C(=O)N1S(=O)(=O)O", "inhibition": "inactive"}
{"smiles": "C[C@@H](O)[C@H]1C(=O)N2C(C(=O)O)=C([C@H]3CCCO3)S[C@H]12", "inhibition": "inactive"}
{"smiles": "C[C@@H](O)[C@H]1C(=O)N2C(C(=O)O)=C(SCCNC=N)C[C@H]12", "inhibition": "inactive"}
{"smiles": "NC(=O)[C@@H]1CC[C@@H]2CN1C(=O)N2OS(=O)(=O)O", "inhibition": "inactive"}
{"smiles": "CCC1C(=O)N(S(C)(=O)=O)CC1C(=O)OC", "note": "(racemic; 10)", "inhibition": "inactive"}
{"smiles": "N[C@@H]1CONC1=O", "inhibition": "inactive"}
{"smiles": "CC1(C)S[C@@H]2[C@H](N)C(=O)N2[C@H]1C(=O)O", "inhibition": "inactive"}
{"smiles": "CCC1C(=O)N(S(C)(=O)=O)CC1C(=O)OC", "note": "(racemic; 11)", "inhibition": "inactive"}
{"smiles": "CC1(C)[C@H](C(=O)O)N2C(=O)C[C@H]2S1(=O)=O", "inhibition": "inactive"}
{"biological_target": "T1, Cathepsin K (Homo sapiens, UniProt P43235)", "T1 sequence (P43235 whole entry)": "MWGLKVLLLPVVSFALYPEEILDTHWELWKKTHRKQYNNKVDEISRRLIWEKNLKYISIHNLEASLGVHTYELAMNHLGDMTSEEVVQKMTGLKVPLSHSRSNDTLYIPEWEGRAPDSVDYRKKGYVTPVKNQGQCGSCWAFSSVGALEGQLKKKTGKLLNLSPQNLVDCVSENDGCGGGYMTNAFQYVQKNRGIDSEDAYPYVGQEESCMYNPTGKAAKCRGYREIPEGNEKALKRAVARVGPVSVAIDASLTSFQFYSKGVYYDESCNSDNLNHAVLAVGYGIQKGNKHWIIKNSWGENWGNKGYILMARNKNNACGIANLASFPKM", "experiment": "Inhibition of human Cathepsin K", "units": {"IC50": "µM"}}
{"smiles": "O=C(O)C1=C(C(=O)N(Cc2ccccc2)Cc2ccccc2)CN2C[C@H](NC(=O)[C@H](Cc3ccccc3)NC(=O)c3cc4ccccc4[nH]3)C(=O)N12", "IC50": 64}
{"biological_target": "Replicase polyprotein 1ab (Severe acute respiratory syndrome coronavirus 2) (UniProt P0DTD1)", "experiment": "Uncompetitive inhibition of SARS-Cov-2 Main protease by Lineweaver-Burk plot analysis"}
{"smiles": "O=C(O)C1=C(C(=O)N(Cc2ccccc2)Cc2ccccc2)CN2C[C@H](NC(=O)[C@H](Cc3ccccc3)NC(=O)c3cc4ccccc4[nH]3)C(=O)N12", "inhibition": "Active"}
{"biological_target": "Replicase polyprotein 1ab (Severe acute respiratory syndrome coronavirus 2, UniProt P0DTD1)", "experiment": "Inhibition of SARS-Cov-2 Main protease by FRET assay", "units": {"IC50": "µM"}}
{"smiles": "N[C@H]1CN2CC(C(=O)N(Cc3ccccc3)Cc3ccccc3)=C(C(=O)O)N2C1=O", "IC50": "> 500"}
{"smiles": "O=C(O)C1=C(C(=O)NCc2ccccc2)CN2C[C@H](NC(=O)[C@H](Cc3ccccc3)NC(=O)c3cc4ccccc4[nH]3)C(=O)N12", "IC50": 178}
{"smiles": "O=C(O)C1=C(C(=O)N2CCCC2)CN2C[C@H](NC(=O)[C@H](Cc3ccccc3)NC(=O)c3cc4ccccc4[nH]3)C(=O)N12", "IC50": 181}
{"smiles": "O=C(O)C1=C(C(=O)N(Cc2ccccc2)Cc2ccccc2)CN2C[C@H](NC(=O)[C@H](Cc3ccccc3)NC(=O)c3cc4ccccc4[nH]3)C(=O)N12", "IC50": 45}
{"smiles": "C=CCOC(=O)C1=C(C(=O)O)N2C(=O)[C@@H](NC(=O)[C@H](Cc3ccccc3)NC(=O)c3cc4ccccc4[nH]3)CN2C1", "IC50": 192}
{"smiles": "O=C(O)C1=C(C(=O)NCc2ccncc2)CN2C[C@H](NC(=O)[C@H](Cc3ccccc3)NC(=O)c3cc4ccccc4[nH]3)C(=O)N12", "IC50": 201}
{"smiles": "CN(Cc1ccccc1)C(=O)C1=C(C(=O)O)N2C(=O)[C@@H](NC(=O)[C@H](Cc3ccccc3)NC(=O)c3cc4ccccc4[nH]3)CN2C1", "IC50": "> 500"}
{"smiles": "O=C(O)C1=C(C(=O)N(Cc2ccccc2)Cc2ccccc2)CN2C[C@H](NC(=O)[C@H](C[C@@H]3CCNC3=O)NC(=O)[C@H](Cc3ccccc3)NC(=O)c3cc4ccccc4[nH]3)C(=O)N12", "IC50": 163}
{"smiles": "CCN(CC)C(=O)C1=C(C(=O)O)N2C(=O)[C@@H](NC(=O)[C@H](Cc3ccccc3)NC(=O)c3cc4ccccc4[nH]3)CN2C1", "IC50": 279}
{"smiles": "C[C@H]1[C@H](NC(=O)[C@H](Cc2ccccc2)NC(=O)c2cc3ccccc3[nH]2)C(=O)N1S(=O)(=O)O", "IC50": "> 500"}
{"smiles": "O=C(N[C@@H](Cc1ccccc1)C(=O)N[C@@H]1CONC1=O)c1cc2ccccc2[nH]1", "IC50": "> 500"}
{"smiles": "O=C(N[C@@H](Cc1ccccc1)C(=O)O)c1cc2ccccc2[nH]1", "IC50": "> 500"}
{"smiles": "CC1(C)S[C@@H]2[C@H](NC(=O)[C@H](Cc3ccccc3)NC(=O)c3cc4ccccc4[nH]3)C(=O)N2[C@H]1C(=O)O", "IC50": 134}
{"smiles": "O=C(O)C1=C(Cl)CS[C@@H]2[C@H](NC(=O)[C@H](Cc3ccccc3)NC(=O)c3cc4ccccc4[nH]3)C(=O)N12", "IC50": 90}
